Reference: PMC10143822, “Structural Adaptation of the Single-Stranded DNA-Binding Protein C-Terminal to DNA Metabolizing Partners Guides Inhibitor Design” (Pharmaceutics, 2023)
Where a SMILES comes first, the peptide text is derived from it. Where no end group is shown, it is not given here. [ ]: non-standard residue; d: D form. Phe(4-CF3) = N[C@@H](Cc1ccc(C(F)(F)F)cc1)C(=O)O; β3hI = CC[C@H](C)[C@H](N)CC(=O)O; Tic = O=C(O)[C@@H]1Cc2ccccc2CN1; β3hF = N[C@H](CC(=O)O)Cc1ccccc1; 2Thi = N[C@@H](Cc1cccs1)C(=O)O; Tle = CC(C)(C)[C@H](N)C(=O)O; β3hD = NC(CC(=O)O)CC(=O)O

How the values were obtained:
ExoI [1] = target: T1, ExoI (Escherichia coli, UniProt P04995); assay: Isothermal titration calorimetry with ExoI; assay type: binding, E. coli
T1 construct: His-tag (cleaved yes); host or cells: E. coli BL21 (DE3) pLysS
T1 sequence (P04995 whole entry): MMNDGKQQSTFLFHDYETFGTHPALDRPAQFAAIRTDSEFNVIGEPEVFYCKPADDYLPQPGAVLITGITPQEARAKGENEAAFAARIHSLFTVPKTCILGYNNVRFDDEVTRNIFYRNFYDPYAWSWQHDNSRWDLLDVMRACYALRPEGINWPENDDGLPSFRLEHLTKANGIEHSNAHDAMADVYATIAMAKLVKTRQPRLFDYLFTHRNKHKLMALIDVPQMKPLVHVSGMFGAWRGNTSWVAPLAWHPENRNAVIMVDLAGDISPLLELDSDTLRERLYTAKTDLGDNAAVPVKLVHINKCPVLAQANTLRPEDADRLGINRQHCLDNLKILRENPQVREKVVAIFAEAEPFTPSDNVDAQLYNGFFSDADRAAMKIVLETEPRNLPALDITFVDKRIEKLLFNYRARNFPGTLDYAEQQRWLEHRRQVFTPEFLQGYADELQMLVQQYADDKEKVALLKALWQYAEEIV
Experimental: Isothermal titration calorimetry (ITC) experiments were performed using a MicroCal VP-ITC titration microcalorimeter. ExoI was dialyzed extensively against the indicated buffer and cleared through centrifugation at 14,000 rpm for 15 min at 4 °C. RecO was subjected to a quick buffer exchange using an Amicon Ultra ultrafiltration device (Sigma). Protein concentrations were determined after the buffer exchange procedure.
The raw data were integrated using NITPIC [39]. The binding parameters, association equilibrium constant (KA), binding enthalpy (ΔH), and binding entropy (ΔS) were obtained by fitting the titration curves to a model of A + B = C in SEDPHAT [40]. Stoichiometry was fixed to 1:1 and the incompetent fraction was fitted for the protein concentration.

ExoI [2] = target: T1, ExoI; assay: biochemical; assay type: binding, E. coli
Experimental: (§1) Triplicate measurements were performed using a Clariostar Plus Microplate Reader in 384-well plates for all fluorescence anisotropy (FA) experiments. The settings were 25 °C, excitation at 485 nm, emission at 510 nm, settling time of 0.2 s, and 200 flashes per well.
(§2) Competition fluorescence anisotropy experiments were carried out as follows: protein (0.5 μM either ExoI or RecO) was incubated with 50 nM F-wtSSB peptide and 0–500 μM unlabeled wtSSB (or a variant) peptide for 30 min at room temperature. For direct fluorescence anisotropy measurements, 16 µM ExoI and 7.5 µM RecO were used in the first well. After serial dilution, either 50 nM of F-mSSB or F-sSSB was added to the wells and then incubated for 30 min. Buffers used included 20 mM Tris-HCl (pH 8.0), 100 mM NaCl, 1 mM MgCl2, 1 mM 2-mercaptoethanol, 10% (v/v) glycerol, for ExoI and 20 mM Tris-HCl (pH 8.0), 200 mM NaCl, 1 mM 2-mercaptoethanol, 10% (v/v) glycerol, and 0.01% Triton-X 100 for RecO [37].
(§3) Fluorescence anisotropy values were normalized and are shown as bound fractions (BF, %). BF=r−rmin/λ(rmax−r)+r−rmin, I=2∗PG+S, r=S−PG/I, where r: anisotropy, I: total intensity, P: perpendicular intensity, S: parallel intensity, G: an instrument factor set to 1, BF: ligand fraction bound, and λ=λbound/λunbound=1 .
(§4) Competitive fluorescence anisotropy was analyzed in Origin Pro 9.5, and IC50 values were determined using the Logistic Nonlinear fit function and are shown as plots for each mutated position for each protein in Figures S4 and S6. EC50 values from direct fluorescence anisotropy titrations were plotted in Origin 9.5. Values were determined using the Logistics Nonlinear fit function.

RecO = target: T2, RecO (Escherichia coli, UniProt P0A7H3); assay: biochemical; assay type: binding; settings: 0.5 μM RecO, 50 nM F-wtSSB tracer, 0–500 μM unlabeled peptide, 30 min room temperature; 20 mM Tris-HCl pH 8.0, 200 mM NaCl, 10% glycerol, 0.01% Triton-X 100; 25 °C; triplicate; read-out: IC50 on RecO, competitive fluorescence anisotropy
T2 construct: His-tag (TEV site) (N, cleaved yes); made in house; host or cells: E. coli Rosetta cells
T2 sequence (P0A7H3 whole entry): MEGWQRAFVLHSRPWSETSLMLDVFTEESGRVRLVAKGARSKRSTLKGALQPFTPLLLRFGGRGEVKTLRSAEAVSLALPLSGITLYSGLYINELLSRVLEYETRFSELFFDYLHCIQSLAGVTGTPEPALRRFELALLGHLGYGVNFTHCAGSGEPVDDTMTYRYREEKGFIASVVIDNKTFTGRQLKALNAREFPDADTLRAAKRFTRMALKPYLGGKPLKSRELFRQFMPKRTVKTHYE
Experimental: as §1, §2, §3, §4

Compound | Kd (ExoI [1]) [µM] | IC50 (ExoI [2]) [µM] | IC50 (RecO) [µM]
CC[C@H](C)[C@H](NC(=O)[C@H](CC(=O)O)NC(=O)[C@H](CC(=O)O)NC(=O)[C@H](CC(=O)O)NC(=O)[C@H](Cc1ccc(C(F)(F)F)cc1)NC(=O)[C@H](CC(=O)O)NC(C)=O)C(=O)N1CCC[C@H]1C(=O)N[C@@H](Cc1ccc(C(F)(F)F)cc1)C(=O)O [E2-sSSB-Ct] (Ac-D[Phe(4-CF3)]DDDIP[Phe(4-CF3)]-OH) | 0.04 | 0.35 | –
CC[C@H](C)[C@H](NC(=O)[C@H](CC(=O)O)NC(=O)[C@H](CC(=O)O)NC(=O)[C@H](CC(=O)O)NC(=O)[C@H](Cc1ccccc1)NC(=O)[C@H](CC(=O)O)NC(C)=O)C(=O)N1CCC[C@H]1C(=O)N[C@@H](Cc1cccs1)C(=O)O [Thi8] (Ac-DFDDDIP[2Thi]-OH) | – | 7.72 ± 0.51 | 8.59 ± 7.26
CC[C@H](C)[C@H](NC(=O)[C@H](CC(=O)O)NC(=O)[C@H](CC(=O)O)NC(=O)[C@H](CC(=O)O)NC(=O)[C@@H]1Cc2ccccc2CN1C(=O)[C@H](CC(=O)O)NC(C)=O)C(=O)N1CCC[C@H]1C(=O)N[C@@H](Cc1ccccc1)C(=O)O [Tic2] (Ac-D[Tic]DDDIPF-OH) | – | 6.6 ± 0.55 | 3.99 ± 0.1
CC[C@H](C)[C@H](NC(=O)[C@H](CC(=O)O)NC(=O)[C@H](CC(=O)O)NC(=O)[C@H](CC(=O)O)NC(=O)[C@H](Cc1ccccc1)NC(=O)[C@H](CC(=O)O)NC(C)=O)C(=O)N1CCC[C@H]1C(=O)N1Cc2ccccc2C[C@H]1C(=O)O [Tic8] (Ac-DFDDDIP[Tic]-OH) | – | 96.1 ± 83.8 | 141 ± 8.37
CC(=O)N[C@@H](CC(=O)O)C(=O)N[C@@H](Cc1ccccc1)C(=O)N[C@@H](CC(=O)O)C(=O)N[C@@H](CC(=O)O)C(=O)N[C@@H](CC(=O)O)C(=O)N[C@H](C(=O)N1CCC[C@H]1C(=O)N[C@@H](Cc1ccccc1)C(=O)O)C(C)(C)C [tBuGly6] (Ac-DFDDD[Tle]PF-OH) | – | 2.87 ± 0.26 | 10.4 ± 1.02
CC[C@H](C)[C@H](NC(=O)[C@H](CC(=O)O)NC(=O)[C@H](CC(=O)O)NC(=O)[C@H](CC(=O)O)NC(=O)[C@H](Cc1ccccc1)NC(=O)C[C@H](CC(=O)O)NC(C)=O)C(=O)N1CCC[C@H]1C(=O)N[C@@H](Cc1ccccc1)C(=O)O [β3-Asp1] (Ac-[β3hD]FDDDIPF-OH) | – | 4.47 ± 0.25 | 8.03 ± 0.4
CC[C@H](C)[C@H](NC(=O)[C@H](CC(=O)O)NC(=O)[C@H](CC(=O)O)NC(=O)C[C@H](CC(=O)O)NC(=O)[C@H](Cc1ccccc1)NC(=O)[C@H](CC(=O)O)NC(C)=O)C(=O)N1CCC[C@H]1C(=O)N[C@@H](Cc1ccccc1)C(=O)O [β3-Asp3] (Ac-DF[β3hD]DDIPF-OH) | – | 3.65 ± 0.16 | 8.92 ± 0.39
CC[C@H](C)[C@H](NC(=O)[C@H](CC(=O)O)NC(=O)C[C@H](CC(=O)O)NC(=O)[C@H](CC(=O)O)NC(=O)[C@H](Cc1ccccc1)NC(=O)[C@H](CC(=O)O)NC(C)=O)C(=O)N1CCC[C@H]1C(=O)N[C@@H](Cc1ccccc1)C(=O)O [β3-Asp4] (Ac-DFD[β3hD]DIPF-OH) | – | 1.54 ± 0.13 | 19.6 ± 2.78
CC[C@H](C)[C@H](NC(=O)C[C@H](CC(=O)O)NC(=O)[C@H](CC(=O)O)NC(=O)[C@H](CC(=O)O)NC(=O)[C@H](Cc1ccccc1)NC(=O)[C@H](CC(=O)O)NC(C)=O)C(=O)N1CCC[C@H]1C(=O)N[C@@H](Cc1ccccc1)C(=O)O [β3-Asp5] (Ac-DFDD[β3hD]IPF-OH) | – | 13.9 ± 6.11 | 5.91 ± 0.68
CC[C@H](C)[C@@H](CC(=O)N1CCC[C@H]1C(=O)N[C@@H](Cc1ccccc1)C(=O)O)NC(=O)[C@H](CC(=O)O)NC(=O)[C@H](CC(=O)O)NC(=O)[C@H](CC(=O)O)NC(=O)[C@H](Cc1ccccc1)NC(=O)[C@H](CC(=O)O)NC(C)=O [β3-Ile6] (Ac-DFDDD[β3hI]PF-OH) | – | 11.28 ± 0.03 | 19.2 ± 7.47
CC[C@H](C)[C@H](NC(=O)[C@H](CC(=O)O)NC(=O)[C@H](CC(=O)O)NC(=O)[C@H](CC(=O)O)NC(=O)C[C@H](Cc1ccccc1)NC(=O)[C@H](CC(=O)O)NC(C)=O)C(=O)N1CCC[C@H]1C(=O)N[C@@H](Cc1ccccc1)C(=O)O [β3-Phe2] (Ac-D[β3hF]DDDIPF-OH) | – | 3.8 ± 0.11 | 3.66 ± 0.61
Ac-DFDDNIPF [Asn5] | – | 7.92 ± 0.62 | 16 ± 0.51
